According to patent publication US20230147962A1, “FIBROBLAST ACTIVATION PROTEIN LIGANDS FOR TARGETED DELIVERY APPLICATIONS” (PHILOCHEM AG, priority 2020, published 2023):
*1 amine or outer side, *2 acyl side, *3 side chain or, on linkers, in order; H or OH if unused. Where a SMILES comes first, the peptide text is derived from it. The star is where a group is joined. Fluorescein(5-Mal) = O=C1OC2(c3ccc(O)cc3Oc3cc(O)ccc32)c2ccc(N3C(=O)CC(*)C3=O)cc21; X1 = N#C[C@@H]1CC(F)(F)CN1C(=O)CNC(=O)c1ccnc2c(N*)cccc12; Suc = O=C(CCC(=O)[*:2])[*:1]

Key:
[1] = system: SK-RC-52.hFAP renal cell carcinoma xenografts; assay: Ex vivo targeting experiment, SK-RC-52.hFAP xenografts; assay type: in vivo, BALB/C nu/nu mice; settings: 40 nmol intravenous, ex vivo organ images 1 h
Description: SK-RC-52.hFAP cells were grown to 80% confluence and detached with Trypsin-EDTA 0.05%. Cells were re-suspended in HBSS medium to a final concentration of 5×10^7 cells/mL.
Mice bearing subcutaneous SK-RC-52.hFAP tumour was injected intravenously with conjugate 15 (40 nmol in sterile PBS, pH 7.4). Animals were sacrificed by CO2 asphyxiation 1h after the intravenous injection and the organs and the tumour were excised, snap-frozen in OCT medium and stored at −80° C. Cryostat sections ([…]) were cut and nuclei were stained with Fluorescence Mounting Medium (Dako Omnis, Agilent). Images were obtained using an Axioskop2 mot plus microscope (Zeiss) and analyzed by ImageJ 1.53 software.

SK-RC-52.hFAP [2] = assay: FACS analysis on SK-RC-52 wild type and SK-RC-52.hFAP; assay type: cell-based; settings: 10 nM
Description: SK-RC-52.hFAP, SK-RC-52.wt, HT-1080.wt and HT-1080.hFAP were detached from culture plates using Accutase, counted and suspended to a final concentration of 1.5×10^6 cells/mL in a 1% v/v solution of FCS in PBS pH 7.4. […] Cells were washed once with 200 μL 1% v/v solution of FCS in PBS pH 7.4 (200 μL), spun down, resuspended in a 1% v/v solution of FCS in PBS pH 7.4 (300 μL) and analyzed on a CytoFLEX cytometer (Beckman Coulter). The raw data were processed with the FlowJo 10.4 software.

hFAP = biological target: T1, hFAP (Homo sapiens, UniProt Q12884); assay: Chromatographic co-elution (PD-10) of ligand-protein complexes, hFAP; assay type: binding; settings: PD-10 column, hFAP 2 μM
T1 construct: made in house; host or cells: CHO cells, transient gene expression, purified from supernatant
T1 sequence (Q12884 with tags, fused parts or gaps): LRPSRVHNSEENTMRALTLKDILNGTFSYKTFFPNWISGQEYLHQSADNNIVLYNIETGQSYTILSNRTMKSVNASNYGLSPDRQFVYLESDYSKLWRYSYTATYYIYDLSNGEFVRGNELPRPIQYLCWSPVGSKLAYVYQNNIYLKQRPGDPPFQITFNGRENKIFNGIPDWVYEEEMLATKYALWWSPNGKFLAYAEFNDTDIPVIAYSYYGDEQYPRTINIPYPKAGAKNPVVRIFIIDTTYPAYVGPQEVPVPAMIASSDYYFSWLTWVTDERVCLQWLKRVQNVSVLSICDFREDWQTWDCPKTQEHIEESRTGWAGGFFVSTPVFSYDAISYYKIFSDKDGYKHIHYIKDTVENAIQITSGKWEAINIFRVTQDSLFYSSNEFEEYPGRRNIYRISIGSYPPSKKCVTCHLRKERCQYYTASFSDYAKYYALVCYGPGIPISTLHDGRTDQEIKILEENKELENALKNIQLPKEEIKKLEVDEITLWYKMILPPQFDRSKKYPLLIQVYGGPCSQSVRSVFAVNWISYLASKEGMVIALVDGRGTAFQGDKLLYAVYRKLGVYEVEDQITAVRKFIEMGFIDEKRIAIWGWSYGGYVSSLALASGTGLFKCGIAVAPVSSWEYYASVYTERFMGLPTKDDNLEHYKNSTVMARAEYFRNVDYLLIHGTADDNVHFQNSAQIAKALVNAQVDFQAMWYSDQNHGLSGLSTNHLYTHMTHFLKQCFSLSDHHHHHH
Description: A PD-10 column was pre-equilibrated with assay buffer (50 mM Tris, 100 mM NaCl, 1 mM EDTA, pH=7.4) prior to the loading of the complex. Human FAP (2 μM) and fluorescein-labeled binders (6 μM) were incubated for 30 min at 37° C. in the dark. The mixture was loaded and the column was flushed using the assay buffer. The flow through was collected in 96-well plates and the fluorescence was measured immediately on a TECAN microtiter plate reader, monitoring the fluorescence at an excitation wavelength of 485 nm and an emission wavelength of 535 nm. The protein quantities were estimated by measuring the absorbance at 280 nm using a Nanodrop 2000/2000c spectrophotometer.
A PD-10 column was pre-equilibrated with assay buffer (50 mM Tris, 100 mM NaCl, 1 mM EDTA, pH=7.4) prior to the loading of the complex. A mixture of different proteins (hFAP=2 μM, mFAP=5 μM) and conjugate 15 (100 nM) were incubated and loaded on the column. The mixture was flushed using the assay buffer. The flow through was collected in 96-well plates and the fluorescence intensity was measured immediately on a TECAN microtiter plate reader, monitoring the fluorescence at an excitation wavelength of 485 nm and an emission wavelength of 535 nm. The concentration of the proteins was estimated by measuring the absorbance at 280 nm using a Nanodrop 2000/2000c spectrophotometer.

HT-1080.hFAP = assay: Confocal microscopy on HT-1080.hFAP; assay type: cell-based; settings: t=0 and 1 h
Description: (§1) HT-1080.hFAP and HT-1080 cells were seeded into 4-well cover slip chamber plates at a density of 10^4 cells per well in DMEM medium (1 mL) supplemented with 10% FCS, AA and HEPES (10 mM) and allowed to grow for 24 hours under standard culture conditions. Hoechst 33342 nuclear dye was used to stain nuclear structures.
(§2) The culture medium was replaced with fresh medium containing conjugate 15 (100 nM). Randomly selected colonies imaged on a SP8 confocal microscope equipped with an AOBS device (Leica Microsystems).

SK-RC-52.hFAP [3] = assay: Confocal microscopy on SK-RC-52.hFAP; assay type: cell-based; settings: t=0 and 1 h
Description: as §1, with “SK-RC-52.hFAP” for “HT-1080.hFAP”, “SK-RC-52” for “HT-1080”, “RPMI” for “DMEM”
as §2

SK-RC-52 Wild type = assay: Confocal microscopy on SK-RC-52 wild type; assay type: cell-based; settings: negative control cells
Description: as §1, with “SK-RC-52.hFAP” for “HT-1080.hFAP”, “SK-RC-52” for “HT-1080”, “RPMI” for “DMEM”
as §2

With `N#C[C@@H]1CC(F)(F)CN1C(=O)CNC(=O)c1ccnc2c(NC(=O)CCC(=O)N[C@@H](CC(=O)O)C(=O)N[C@@H](CCCCN)C(=O)N[C@@H](CC(=O)O)C(=O)N[C@@H](CSC3CC(=O)N(c4ccc5c(c4)C(=O)OC54c5ccc(O)cc5Oc5cc(O)ccc54)C3=O)C(=O)O)cccc12` (stereo partly drawn) [Conjugate 15, (2R,5S,8S,11S)-8-(4-aminobutyl)-5,11-bis(carboxymethyl)-16-((4-((2-((S)-2-cyano-4,4-difluoropyrrolidin-1-yl)-2-oxoethyl)carbamoyl)quinolin-8-yl)amino)-2-(((1-(3′,6′-dihydroxy-3-oxo-3H-spiro[isobenzofuran-1,9′-xanthen]-5-yl)-2,5-dioxopyrrolidin-3-yl)thio)methyl)-4,7,10,13,16-pentaoxo-3,6,9,12-tetraazahexadecanoic acid] ({X1-Suc}-DKDC(Fluorescein(5-Mal))-OH) the “targeting performance in SK-RC-52.hFAP xenografts” value [1] was “rapidly and homogeneously localizes at the tumour site in vivo 1 hour after the intravenous injection, with a high tumour-to-organs selectivity”, the “cellular binding, SK-RC-52 Wild type vs SK-RC-52.hFAP” value (SK-RC-52.hFAP [2]) was “FAP-specific cellular binding” and the “complex formation with hFAP in PD-10 co-elution” value (hFAP) was “stable complex is formed”. The “accumulation on HT-1080.hFAP cells” value (HT-1080.hFAP) was “accumulation of conjugate 15 on the cell membrane and inside the cytosol”, the “accumulation on SK-RC-52.hFAP cells” value (SK-RC-52.hFAP [3]) was “accumulation of conjugate 15 on the cell membrane” and the “accumulation on SK-RC-52 Wild type cells” value (SK-RC-52 Wild type) was “no accumulation on the cell membrane”.
